What was measured:
[1] = test system: caterpillars of the cotton boll worm (Heliothis armigera); assay: Heliothis armigera test (cabbage leaf dip, kill rate); format: in vivo; conditions: single active compound
Excerpt: (§1) The expected action for a given combination of two active compounds can be calculated as follows, according to S. R. Colby, Weeds 15 (1967), 20-22:
(§2) • X is the kill rate, expressed as a percentage of the untreated control, when employing active compound A at an application rate of m g/ha or in a concentration of m ppm, • Y is the kill rate, expressed as a percentage of the untreated control, when employing active compound B at an application rate of n g/ha or in a concentration of n ppm and • E is the kill rate, expressed as a percentage of the untreated control, when employing active compounds A and B at application rates of m and n g/ha or in a concentration of m and n ppm, then
(§3) If the actual insecticidal kill rate exceeds the calculated value, the action of the combination is superadditive, i.e. a synergistic effect is present. In this case, the actually observed kill rate must exceed the value calculated using the above formula for the expected kill rate (E).
(§4) To produce a suitable preparation of active compound, 1 part by weight of active compound is mixed with the stated amounts of solvent and emulsifier, and the concentrate is diluted with emulsifier-containing water to the desired concentration.
Cabbage leaves (Brassica oleracea) are treated by being dipped into the preparation of active compound of the desired concentration and are populated with caterpillars of the cotton boll worm (Heliothis armigera) while the leaves are still moist.
(§5) After the desired period of time, the kill in % is determined. 100% means that all caterpillars have been killed; 0% means that none of the caterpillars have been killed. The kill rates determined are calculated using Colby's formula (see page 43).

[2] = test system: green peach aphid (Myzus persicae); assay: Myzus persicae test (infested cabbage leaf dip, kill rate); format: in vivo; conditions: single active compound, 0.8 ppm
Excerpt: as §1, §2, §3
(§6) To produce a suitable preparation of active compound, 1 part by weight of active compound is mixed with the stated amounts of solvent and emulsifier, and the concentrate is diluted with emulsifier-containing water to the desired concentration. […]
(§7) After the desired period of time, the kill in % is determined. […] The kill rates determined are calculated using Colby's formula (see page 43).

[3] = test system: caterpillars of the diamond back moth (Plutella xylostella, normally sensitive strain); assay: Plutella xylostella test (normally sensitive strain; cabbage leaf dip, kill rate); format: in vivo; conditions: single active compound
Excerpt: as §1, §2, §3
Plutella xylostella Test (Normally Sensitive Strain)
as §4
Cabbage leaves (Brassica oleracea) are treated by being dipped into the preparation of active compound of the desired concentration and are populated with larvae of caterpillars of the diamond back moth (Plutella xylostella, normally sensitive strain) while the leaves are still moist.
After the desired period of time, the kill in % is determined. 100% means that all caterpillars have been killed; 0% means that none of the caterpillars have been killed. The kill rates determined are calculated using Colby's formula (see sheet 1).

[4] = test system: caterpillars of the armyworm (Spodoptera frugiperda); assay: Spodoptera frugiperda test (cabbage leaf dip, kill rate); format: in vivo; conditions: single active compound
Excerpt: as §1, §2, §3
Spodoptera frugiperda Test
as §4
Cabbage leaves (Brassica oleracea) are treated by being dipped into the preparation of active compound of the desired concentration and are populated with caterpillars of the armyworm (Spodoptera frugiperda) while the leaves are still moist.
as §5

[5] = test system: larvae of the mustard beetle (Phaedon cochleariae); assay: Phaedon cochleariae larvae test (cabbage leaf dip, kill rate); format: in vivo; conditions: single active compound
Excerpt: as §1, §2, §3
Phaedon cochleariae Larvae Test
as §6, §7

CN/C(=N\[N+](=O)[O-])NCc1cnc(Cl)s1 [Im, clothianidin]
Kill rate in % after 6 d, found ([1]; 4 ppm): 40% | Kill rate in % after 6 d, found [2]: 30% | Kill rate in % after 6 d, found ([3]; 4 ppm): 0%

N#C/N=C1\SCCN1Cc1ccc(Cl)nc1 [Ik, thiacloprid]
Kill rate in % after 6 d, found ([1]; 4 ppm): 25% | Kill rate in % after 6 d, found ([3]; 4 ppm): 0% | Kill rate in % after 6 d, found ([4]; 4 ppm): 0%

O=[N+]([O-])/N=C1\NCCN1Cc1ccc(Cl)nc1 [Ia, imidacloprid]
Kill rate in % after 6 d, found ([1]; 4 ppm): 0% | Kill rate in % after 6 d, found ([5]; 4 ppm): 20% | Kill rate in % after 6 d, found ([3]; 4 ppm): 0% | Kill rate in % after 6 d, found ([4]; 4 ppm): 0%

Cc1cc(Cl)cc(C(=O)NC(C)C)c1NC(=O)c1cc(C(F)(F)F)nn1-c1ncccc1Cl [II-1-9]
Kill rate in % after 6 d, found ([1]; 0.0064 ppm): 0% | Kill rate in % after 6 d, found [2]: 0% | Kill rate in % after 6 d, found ([5]; 0.0064 ppm): 0% | Kill rate in % after 6 d, found ([3]; 0.0064 ppm): 20% | Kill rate in % after 6 d, found ([4]; 0.0064 ppm): 0%

CC(C)NC(=O)c1cc(Br)cc(Br)c1NC(=O)c1cc(C(F)(F)F)nn1-c1ncccc1Cl
melting point: 192 to 193 °C

CC(C)(C)NC(=O)c1cc(Cl)cc(Cl)c1NC(=O)c1cc(Br)nn1-c1ncccc1Cl
melting point: 179 to 180 °C

CC(C)NC(=O)c1cc(Br)cc(Br)c1NC(=O)c1cc(Br)nn1-c1ncccc1Cl
melting point: 162 to 163 °C

CNC(=O)c1cc(Br)cc(C)c1NC(=O)c1cc(C(F)(F)F)nn1-c1ncccc1Cl
melting point: 222 to 223 °C

CCNC(=O)c1cc(Cl)cc(Cl)c1NC(=O)c1cc(Cl)nn1-c1ncccc1Cl
melting point: 206 to 208 °C

Cc1cc(I)cc(C(=O)NC(C)C)c1NC(=O)c1cc(Cl)nn1-c1ncccc1Cl
melting point: 189 to 190 °C

CN(C)C(=O)c1cc(Br)cc(Br)c1NC(=O)c1cc(Br)nn1-c1ncccc1Cl
melting point: 189 to 190 °C

CCNC(=O)c1cc(Br)cc(Br)c1NC(=O)c1cc(Cl)nn1-c1ncccc1Cl
melting point: 192 to 194 °C

CNC(=O)c1cc(Br)cc(C)c1NC(=O)c1cc(Cl)nn1-c1ncccc1Cl
melting point: 140 to 141 °C

Cc1cc(I)cc(C(=O)NC(C)(C)C)c1NC(=O)c1cc(Cl)nn1-c1ncccc1Cl
melting point: 228 to 229 °C

CC(C)(C)NC(=O)c1cc(Br)cc(Cl)c1NC(=O)c1cc(C(F)(F)F)nn1-c1ncccc1Cl
melting point: 143 to 145 °C

Cc1cc(Br)cc(C(=O)N(C)C)c1NC(=O)c1cc(C(F)(F)F)nn1-c1ncccc1Cl
melting point: 207 to 208 °C

From US8993483B2, “Combination of active substances with insecticidal properties” (Bayer Intellectual Property GmbH, priority 2003, dated 2015)
